Experiments:
Conditions in all cases: tested as the 3H-labelled form
[1] = tested on: Human immunodeficiency virus type 1 integrase (Human immunodeficiency virus 1), Q7ZJM1 [Q148R]; test: Inhibition of HIV recombinant integrase Q148R mutant assessed as strand transfer activity using U5 INTCA LTR by scintillation proximity assay relative to wild type LTR; design: scale not given: the % may be the effect or the level left
[2] = tested on: Human immunodeficiency virus; test: Binding affinity to HIV wild type integrase using U5 GInCA LTR relative to wild type LTR
[3] = tested on: Human immunodeficiency virus type 1 integrase (Human immunodeficiency virus 1), Q7ZJM1 [Q148R]; test: Inhibition of HIV recombinant integrase Q148R mutant assessed as strand transfer activity using U5 ApTCA LTR by scintillation proximity assay relative to wild type LTR; design: scale not given: the % may be the effect or the level left
[4] = tested on: Human immunodeficiency virus; test: Inhibition of HIV wild type integrase assessed as specific strand transfer activity using U5 GGCA LTR by scintillation proximity assay relative to wild type LTR; design: scale not given: the % may be the effect or the level left
[5] = tested on: Human immunodeficiency virus; test: Inhibition of HIV wild type integrase assessed as specific strand transfer activity using U5 GACA LTR by scintillation proximity assay relative to wild type LTR; design: scale not given: the % may be the effect or the level left
[6] = tested on: Human immunodeficiency virus; test: Inhibition of HIV wild type integrase assessed as strand transfer activity using U5 GTAA LTR by scintillation proximity assay relative to wild type LTR; design: scale not given: the % may be the effect or the level left
[7] = tested on: Human immunodeficiency virus; test: Binding affinity to HIV wild type integrase using U5 TTCA LTR relative to wild type LTR
[8] = tested on: Human immunodeficiency virus; test: Inhibition of HIV wild type integrase assessed as strand transfer activity U5 GTCA/CC LTR by scintillation proximity assay relative to wild type LTR; design: scale not given: the % may be the effect or the level left
[9] = tested on: Human immunodeficiency virus type 1 integrase (Human immunodeficiency virus 1), Q7ZJM1 [N155H]; test: Inhibition of HIV recombinant integrase N155H mutant assessed as strand transfer activity using U5 GTC LTR by scintillation proximity assay relative to wild type LTR; design: scale not given: the % may be the effect or the level left
[10] = tested on: Human immunodeficiency virus type 1 integrase (Human immunodeficiency virus 1), Q7ZJM1 [N155H]; test: Binding affinity to HIV recombinant integrase N155H mutant using U5 ApTCA LTR relative to wild type LTR
[11] = tested on: Human immunodeficiency virus; test: Inhibition of HIV wild type integrase assessed as strand transfer activity using U5 ApTCA LTR by scintillation proximity assay relative to wild type LTR; design: scale not given: the % may be the effect or the level left
[12] = tested on: Human immunodeficiency virus; test: Binding affinity to HIV wild type integrase using U5 GTAT LTR relative to wild type LTR
[13] = tested on: Human immunodeficiency virus; test: Inhibition of HIV wild type integrase assessed as specific strand transfer activity using U5 GTCA LTR by scintillation proximity assay relative to wild type LTR; design: scale not given: the % may be the effect or the level left
[14] = tested on: Human immunodeficiency virus type 1 integrase (Human immunodeficiency virus 1), Q7ZJM1 [N155H]; test: Inhibition of HIV recombinant integrase N155H mutant assessed as specific strand transfer activity using U5 GTCA LTR by scintillation proximity assay relative to wild type LTR; design: scale not given: the % may be the effect or the level left
[15] = tested on: Human immunodeficiency virus type 1 integrase (Human immunodeficiency virus 1), Q7ZJM1 [N155H]; test: Inhibition of HIV recombinant integrase N155H mutant assessed as specific strand transfer activity using U5 INTCA LTR by scintillation proximity assay relative to wild type LTR; design: scale not given: the % may be the effect or the level left
[16] = tested on: Human immunodeficiency virus type 1 integrase (Human immunodeficiency virus 1), Q7ZJM1 [N155H]; test: Inhibition of HIV recombinant integrase N155H mutant assessed as specific strand transfer activity using U5 TTCA LTR by scintillation proximity assay relative to wild type LTR; design: scale not given: the % may be the effect or the level left
[17] = tested on: Human immunodeficiency virus; test: Inhibition of HIV wild type integrase assessed as specific strand transfer activity using U5 GTdA LTR by scintillation proximity assay relative to wild type LTR; design: scale not given: the % may be the effect or the level left
[18] = tested on: Human immunodeficiency virus; test: Inhibition of HIV wild type integrase assessed as strand transfer activity using U5 GGCA LTR by scintillation proximity assay relative to wild type LTR; design: scale not given: the % may be the effect or the level left
[19] = tested on: Human immunodeficiency virus; test: Inhibition of HIV wild type integrase assessed as strand transfer activity using U5 GTGC LTR by scintillation proximity assay relative to wild type LTR; design: scale not given: the % may be the effect or the level left
[20] = tested on: Human immunodeficiency virus; test: Binding affinity to HIV wild type integrase using U5 GTCA LTR relative to wild type LTR
[21] = tested on: Human immunodeficiency virus; test: Binding affinity to HIV wild type integrase using U5 INTCA LTR relative to wild type LTR
[22] = tested on: Human immunodeficiency virus; test: Inhibition of HIV wild type integrase assessed as specific strand transfer activity using U5 GdC LTR by scintillation proximity assay relative to wild type LTR; design: scale not given: the % may be the effect or the level left
[23] = tested on: Human immunodeficiency virus type 1 integrase (Human immunodeficiency virus 1), Q7ZJM1 [N155H]; test: Inhibition of HIV recombinant integrase N155H mutant assessed as strand transfer activity using U5 GddA LTR by scintillation proximity assay relative to wild type LTR; design: scale not given: the % may be the effect or the level left
[24] = tested on: Human immunodeficiency virus type 1 integrase (Human immunodeficiency virus 1), Q7ZJM1 [Q148R]; test: Binding affinity to HIV recombinant integrase Q148R mutant using U5 TTCA LTR relative to wild type LTR
[25] = tested on: Human immunodeficiency virus; test: Binding affinity to HIV wild type integrase using U5 GTdA LTR relative to wild type LTR
[26] = tested on: Human immunodeficiency virus; test: Inhibition of HIV wild type integrase assessed as specific strand transfer activity using U5 GddA LTR by scintillation proximity assay relative to wild type LTR; design: scale not given: the % may be the effect or the level left
[27] = tested on: Human immunodeficiency virus type 1 integrase (Human immunodeficiency virus 1), Q7ZJM1 [N155H]; test: Inhibition of HIV recombinant integrase N155H mutant assessed as strand transfer activity using U5 TTCA LTR by scintillation proximity assay relative to wild type LTR; design: scale not given: the % may be the effect or the level left
[28] = tested on: Human immunodeficiency virus; test: Binding affinity to HIV wild type integrase using U5 GTGA LTR relative to wild type LTR
[29] = tested on: Human immunodeficiency virus; test: Binding affinity to HIV wild type integrase using U5 GTTC LTR relative to wild type LTR
[30] = tested on: Human immunodeficiency virus; test: Binding affinity to HIV wild type integrase using U5 GTCA/CddC LTR relative to wild type LTR
[31] = tested on: Human immunodeficiency virus type 1 integrase (Human immunodeficiency virus 1), Q7ZJM1 [N155H]; test: Binding affinity to HIV recombinant integrase N155H mutant using U5 GdCA LTR relative to wild type LTR
[32] = tested on: Human immunodeficiency virus type 1 integrase (Human immunodeficiency virus 1), Q7ZJM1 [N155H]; test: Inhibition of HIV recombinant integrase N155H mutant assessed as specific strand transfer activity using U5 ApTCA LTR by scintillation proximity assay relative to wild type LTR; design: scale not given: the % may be the effect or the level left
[33] = tested on: Human immunodeficiency virus type 1 integrase (Human immunodeficiency virus 1), Q7ZJM1 [N155H]; test: Binding affinity to HIV recombinant integrase N155H mutant using U5 dTCA LTR relative to wild type LTR
[34] = tested on: Human immunodeficiency virus type 1 integrase (Human immunodeficiency virus 1), Q7ZJM1 [N155H]; test: Inhibition of HIV recombinant integrase N155H mutant assessed as strand transfer activity using U5 dTCA LTR by scintillation proximity assay relative to wild type LTR; design: scale not given: the % may be the effect or the level left
[35] = tested on: Human immunodeficiency virus type 1 integrase (Human immunodeficiency virus 1), Q7ZJM1 [N155H]; test: Binding affinity to HIV recombinant integrase N155H mutant using U5 TTCA LTR relative to wild type LTR
[36] = tested on: Human immunodeficiency virus; test: Inhibition of HIV wild type integrase assessed as strand transfer activity using U5 GInCA LTR by scintillation proximity assay relative to wild type LTR; design: scale not given: the % may be the effect or the level left
[37] = tested on: Human immunodeficiency virus; test: Inhibition of HIV wild type integrase assessed as specific strand transfer activity using U5 dTCA LTR by scintillation proximity assay relative to wild type LTR; design: scale not given: the % may be the effect or the level left
[38] = tested on: Human immunodeficiency virus; test: Inhibition of HIV wild type integrase assessed as specific strand transfer activity using U5 GTAA LTR by scintillation proximity assay relative to wild type LTR; design: scale not given: the % may be the effect or the level left
[39] = tested on: Human immunodeficiency virus; test: Inhibition of HIV wild type integrase assessed as strand transfer activity using U5 GTTA LTR by scintillation proximity assay relative to wild type LTR relative to wild type LTR; design: scale not given: the % may be the effect or the level left
[40] = tested on: Human immunodeficiency virus; test: Binding affinity to HIV wild type integrase using U5 GddA LTR relative to wild type LTR
[41] = tested on: Human immunodeficiency virus; test: Inhibition of HIV wild type integrase assessed as strand transfer activity using U5 GACA LTR by scintillation proximity assay relative to wild type LTR; design: scale not given: the % may be the effect or the level left
[42] = tested on: Human immunodeficiency virus type 1 integrase (Human immunodeficiency virus 1), Q7ZJM1 [N155H]; test: Binding affinity to HIV recombinant integrase N155H mutant using U5 GTdA LTR relative to wild type LTR
[43] = tested on: Human immunodeficiency virus type 1 integrase (Human immunodeficiency virus 1), Q7ZJM1 [N155H]; test: Inhibition of HIV recombinant integrase N155H mutant assessed as strand transfer activity using U5 INTCA LTR by scintillation proximity assay relative to wild type LTR; design: scale not given: the % may be the effect or the level left

Structure (SMILES): Cn1c(N2CCCCS2(=O)=O)nc(C(=O)NCc2ccc(F)cc2)c(O)c1=O [BMS-707035]
- Activity [1]: 0.6%
- Activity [2]: 28%
- Activity [3]: 0.4%
- Activity [4]: 8%
- Activity [5]: 97%
- Activity [6]: < 25%
- Activity [7]: 8%
- Activity [8]: < 25%
- Activity [9]: 90%
- Activity [10]: 2%
- Activity [11]: 2%
- Activity [12]: < 25%
- Activity [13]: 100%
- Activity [14]: 82%
- Activity [15]: 135%
- Activity [16]: > 20%
- Activity [17]: 42%
- Activity [18]: < 25%
- Activity [19]: 25%
- Activity [20]: 75%
- Activity [21]: 62%
- Activity [22]: 19%
- Activity [23]: 0.6%
- Activity [24]: 1%
- Activity [25]: 37%
- Activity [26]: 3%
- Activity [27]: 4%
- Activity [28]: 74%
- Activity [29]: 25%
- Activity [30]: 75%
- Activity [31]: 21%
- Activity [32]: > 40%
- Activity [33]: 2%
- Activity [34]: 2%
- Activity [35]: 1%
- Activity [36]: 70%
- Activity [37]: 67%
- Activity [38]: 52%
- Activity [39]: 86%
- Activity [40]: 35%
- Activity [41]: 75%
- Activity [42]: 12%
- Activity [43]: 23%

From ChEMBL document CHEMBL1156506, “Changes to the HIV long terminal repeat and to HIV integrase differentially impact HIV integrase assembly, activity, and the binding of strand transfer inhibitors” (J Biol Chem, 2007)
